In US8791159B2, “Compound capable of binding S1P receptor and pharmaceutical use thereof” (Ono Pharmaceutical Co., Ltd., priority 2003, dated 2014):

Key:
[1] = after administration; cited from earlier work
[2] = cited from earlier work
[3] = molecular target: Human EDG-1 (Homo sapiens, UniProt P21453); assay: Agonistic activity against EDG by monitoring intracellular calcium ion concentration [Ca2+]i; assay type: cell-based; details: human EDG-1 overexpressing CHO cells, increase ratio of [Ca2+]i
Procedure: Human EDG-1, EDG-3, EDG-5 or EDG-8 gene overexpressing Chinese Hamster Ovary (CHO) cells were cultured in Ham's F12 medium (manufactured by GIBCO BRL) containing 10% FBS (fetal bovine serum), penicillin/streptomycin and blasticidin (5 μg/ml). The cultured cells were incubated in a 5 μM Fura2-AM solution (Ham's F12 medium containing 10% of FBS, 20 mM HEPES buffer (pH7.4) and 2.5 mM probenecid) at 37° C. for 60 minutes. After washing once with Hanks solution containing […] buffer (pH7.4) and 2.5 mM probenecid, the plate was soaked in the same solution until assay. Then, the plate was set on a fluorescent drug screening system (FDSS 6000; Hamamatsu Photonics) and the intracellular calcium ion concentration was measured without stimulation for 30 seconds. A test compound (final concentration: 1 nM to 10 μM, dimethylsulfoxide (DMSO) solution) was added and S1P (final concentration: 100 nM) was added 5 minutes thereafter. Then, the increase in the intracellular calcium ion concentration was measured before and after the addition of S1P at intervals of 3 seconds (excitation wavelength: 340 nm and 380 nm, fluorescence wavelength: 500 nm). […]

[4] = system: lymphocyte in blood; assay: Counting the number of lymphocyte in blood (1); assay type: in vivo, male Sprague-Dawley rats; details: oral, 10, 30 and 100 mg/kg, 4 hours after the administration, rat
Procedure: Test compounds were orally administered to male Sprague-Dawley rats (Charles Riber Laboratories, Japan, Ltd., 6-week-old at using). Four to 72 hours after the administration, the blood was collected from the aorta abdominalis under ether anesthesia. Using a portion of the thus collected blood, the number of blood cells were counted and the number of lymphocyte, neutrophil and platelet were counted. Each group had 4 or 5 animals.

[5] = molecular target: T1, EDG-6 (Homo sapiens, UniProt O95977); assay: Inhibitory activity on binding of [3H]-S1P to EDG-6 (EDG-6-overexpressing cells); details: competitive binding test, 5 nM D-erythro-sphingosine-3-[3H]-1-phosphate, 60 minutes on ice
T1 construct: expressed in transfected cells; host or cells: EDG-6-overexpressing cells
T1 sequence (O95977 1-384): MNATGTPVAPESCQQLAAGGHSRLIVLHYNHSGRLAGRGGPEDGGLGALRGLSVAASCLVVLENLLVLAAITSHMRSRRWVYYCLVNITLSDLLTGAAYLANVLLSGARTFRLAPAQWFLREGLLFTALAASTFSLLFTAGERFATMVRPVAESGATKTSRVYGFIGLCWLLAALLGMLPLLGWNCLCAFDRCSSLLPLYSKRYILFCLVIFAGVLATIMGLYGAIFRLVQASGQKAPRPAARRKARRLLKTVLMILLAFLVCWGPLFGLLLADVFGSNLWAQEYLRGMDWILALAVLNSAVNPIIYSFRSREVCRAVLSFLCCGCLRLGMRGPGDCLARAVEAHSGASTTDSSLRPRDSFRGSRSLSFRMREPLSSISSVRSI
Procedure: Firstly, EDG-6-overexpressing cells were seeded at a density of 2×10^5 cells/well into a 12-well plate. After 12 hours, the cells were washed with 0.5 mL of an assay buffer twice. In a saturation binding test for determining the KD value and the Bmax value, the cells were incubated in 0.4 mL of an assay buffer containing D-erythro-sphingosine-3-[^3H]-1-phosphate at various concentrations and 2 μL of 0.01 N NaOH for 60 minutes on ice. Then, the wells were washed with 0.8 mL of the assay buffer twice and the whole cells were disrupted by adding 0.1 mL of 0.5% TCA (trichloroacetic acid), 0.4 mL of a lysis buffer (2% Na2CO3, 4% NaOH, 0.1% SDS) and 0.1 mL of 1 N hydrochloric acid. Then, 0.5 mL of the lysed solution was collected in a glass vial (Packard) with a pipette. After adding 7 mL of ACSII (Amersham), the mixture was thoroughly stirred and the radioactivity was measured with a liquid scintillation counter (TRI-CARB 2900TR Packard), thereby determining the KD value. The value of the nonspecific binding was determined by adding unlabeled S1P at a final concentration of 25 μM as a substitute for 0.01 N NaOH. […] The subsequent procedures following washing were carried out as in the saturation binding test and the radioactivity was measured as described above.

[6] = system: S1P receptor; details: cited from earlier work

Human EDG-1, sequence (P21453 whole entry): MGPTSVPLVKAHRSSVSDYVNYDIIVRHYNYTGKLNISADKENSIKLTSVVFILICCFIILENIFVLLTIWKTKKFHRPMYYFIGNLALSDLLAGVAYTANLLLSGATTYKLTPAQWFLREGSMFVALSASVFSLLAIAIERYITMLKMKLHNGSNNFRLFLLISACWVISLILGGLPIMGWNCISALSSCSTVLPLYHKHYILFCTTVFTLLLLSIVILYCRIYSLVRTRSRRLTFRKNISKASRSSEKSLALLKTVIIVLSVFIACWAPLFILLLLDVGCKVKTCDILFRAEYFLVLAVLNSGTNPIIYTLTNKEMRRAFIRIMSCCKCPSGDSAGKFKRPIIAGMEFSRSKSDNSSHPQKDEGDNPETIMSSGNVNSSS

CC1=C(CN2CC(C(=O)O)C2)CCc2cc(OCC(C)(C)Cc3ccccc3)ccc21.Cl
melting point: 124 to 127 °C

CCCCCCCCc1ccc(CCC(N)(CO)CO)cc1.Cl [FTY720, 2-amino-2-[2-(4-octylphenyl)ethyl]-1,3-propanediol hydrochloride]
side effect (bradycardia) [1]: causing bradycardia after administration
incidence rate of acute rejection ([2]; human kidney transplantation): significantly lowering the incidence rate of acute rejection
lymphocyte count in the peripheral blood ([2]; human, in vivo): reducing the lymphocyte count in the peripheral blood

O=C(O)CCNCCCc1ccc(OCCCCCc2ccccc2)cc1 [3-[3-(4-(5-phenylpentyloxy)phenyl)propylamino]propanoic acid]
EC50 [3]: 255 nM
number of lymphocyte in blood [4]: concentration-dependently lowered the number of lymphocyte in blood
Ki [5]: 352 nM

CCCCCCCCc1ccc(CCC(N)(CO)COP(=O)(O)O)cc1 (stereo not shown) [phosphorylated FTY720]
binding to S1P receptor subtypes [6]: binds to multiple subtypes of the S1P receptors, i.e., EDG-1, EDG-3, EDG-6 and EDG-8

CC1=C(CN2CC(C(=O)O)C2)CCc2cc(OCCC(c3ccccc3)c3ccccc3)ccc21.Cl
melting point: 77 to 83 °C

CC1=C(CNCCC(=O)O)CCc2cc(OCCCCc3ccccc3)ccc21.Cl
melting point: 162.5 to 163.3 °C
